Test results reported in the NIST ThermoML archive (doi:10.1021/je300252d).
± gives the expanded uncertainty stated by the source.

Test: mn = molality of the nth substance listed, in mol/kg
Conditions: 100 kPa, Liquid, Direct current cell with electrodes

F[B-](F)(F)F.[Na+] [sodium tetrafluoroborate] + CN(C)C=O
Conditions | molar conductivity [S·m2/mol]
283.15 K, m1 = 0.0001924 | 0.006693 ± 7.6e-06
283.15 K, m1 = 0.0003952 | 0.0066184 ± 6.4e-06
283.15 K, m1 = 0.0006451 | 0.0065533 ± 5.2e-06
283.15 K, m1 = 0.0008265 | 0.0065141 ± 4.1e-06
283.15 K, m1 = 0.001295 | 0.006434 ± 3.5e-06
283.15 K, m1 = 0.002093 | 0.0063285 ± 2.9e-06
283.15 K, m1 = 0.00309 | 0.0062291 ± 2.6e-06
283.15 K, m1 = 0.004094 | 0.0061456 ± 2.3e-06
283.15 K, m1 = 0.005982 | 0.0060221 ± 2.1e-06
283.15 K, m1 = 0.007983 | 0.0059166 ± 2e-06
283.15 K, m1 = 0.009964 | 0.005832 ± 1.9e-06
283.15 K, m1 = 0.01199 | 0.0057567 ± 1.8e-06
288.15 K, m1 = 0.0001674 | 0.007209 ± 8e-06
288.15 K, m1 = 0.000442 | 0.007102 ± 7.2e-06
288.15 K, m1 = 0.000627 | 0.0070513 ± 5.5e-06
288.15 K, m1 = 0.0007814 | 0.0070146 ± 4.4e-06
288.15 K, m1 = 0.001324 | 0.0069135 ± 3.7e-06
288.15 K, m1 = 0.002128 | 0.0067991 ± 3.1e-06
288.15 K, m1 = 0.003087 | 0.0066947 ± 2.7e-06
288.15 K, m1 = 0.00408 | 0.0066044 ± 2.4e-06
288.15 K, m1 = 0.006001 | 0.0064671 ± 2.2e-06
288.15 K, m1 = 0.007983 | 0.0063522 ± 2e-06
288.15 K, m1 = 0.009981 | 0.0062566 ± 1.9e-06
288.15 K, m1 = 0.01195 | 0.0061747 ± 1.9e-06
293.15 K, m1 = 0.0002336 | 0.007686 ± 8.6e-06
293.15 K, m1 = 0.0004583 | 0.0076005 ± 7.2e-06
293.15 K, m1 = 0.0006194 | 0.0075538 ± 5.7e-06
293.15 K, m1 = 0.0008218 | 0.0075029 ± 4.7e-06
293.15 K, m1 = 0.001262 | 0.0074142 ± 4e-06
293.15 K, m1 = 0.001996 | 0.0072971 ± 3.3e-06
293.15 K, m1 = 0.003085 | 0.0071656 ± 2.9e-06
293.15 K, m1 = 0.004073 | 0.0070679 ± 2.5e-06
293.15 K, m1 = 0.005971 | 0.0069203 ± 2.3e-06
293.15 K, m1 = 0.007974 | 0.0067931 ± 2.1e-06
293.15 K, m1 = 0.009986 | 0.0066867 ± 2e-06
293.15 K, m1 = 0.01198 | 0.0065964 ± 1.9e-06
298.15 K, m1 = 0.0001864 | 0.008228 ± 9.9e-06
298.15 K, m1 = 0.0003604 | 0.008147 ± 8.1e-06
298.15 K, m1 = 0.0005971 | 0.0080676 ± 6.4e-06
298.15 K, m1 = 0.000833 | 0.0080036 ± 5e-06
298.15 K, m1 = 0.001297 | 0.0079038 ± 4.1e-06
298.15 K, m1 = 0.002158 | 0.0077599 ± 3.5e-06
298.15 K, m1 = 0.00307 | 0.0076432 ± 3e-06
298.15 K, m1 = 0.004131 | 0.0075305 ± 2.6e-06
298.15 K, m1 = 0.005971 | 0.0073766 ± 2.4e-06
298.15 K, m1 = 0.007994 | 0.0072373 ± 2.2e-06
298.15 K, m1 = 0.009949 | 0.0071242 ± 2.1e-06
298.15 K, m1 = 0.01197 | 0.0070255 ± 2e-06
303.15 K, m1 = 0.0001663 | 0.008767 ± 1e-05
303.15 K, m1 = 0.0003918 | 0.008654 ± 8.9e-06
303.15 K, m1 = 0.0005861 | 0.0085855 ± 6.9e-06
303.15 K, m1 = 0.0007746 | 0.008529 ± 5.4e-06
303.15 K, m1 = 0.001279 | 0.0084093 ± 4.5e-06
303.15 K, m1 = 0.002088 | 0.0082612 ± 3.7e-06
303.15 K, m1 = 0.003044 | 0.0081277 ± 3.2e-06
303.15 K, m1 = 0.004105 | 0.0080061 ± 2.7e-06
303.15 K, m1 = 0.005964 | 0.0078384 ± 2.5e-06
303.15 K, m1 = 0.007948 | 0.0076906 ± 2.3e-06
303.15 K, m1 = 0.01001 | 0.0075615 ± 2.1e-06
303.15 K, m1 = 0.01198 | 0.0074596 ± 2e-06
308.15 K, m1 = 0.0001761 | 0.009295 ± 1.2e-05
308.15 K, m1 = 0.0003871 | 0.009183 ± 9.6e-06
308.15 K, m1 = 0.0005655 | 0.0091142 ± 7.2e-06
308.15 K, m1 = 0.0008095 | 0.0090359 ± 5.8e-06
308.15 K, m1 = 0.001266 | 0.0089201 ± 4.8e-06
308.15 K, m1 = 0.002043 | 0.0087655 ± 4e-06
308.15 K, m1 = 0.003019 | 0.0086178 ± 3.4e-06
308.15 K, m1 = 0.004064 | 0.0084888 ± 2.8e-06
308.15 K, m1 = 0.005984 | 0.0083031 ± 2.6e-06
308.15 K, m1 = 0.007986 | 0.0081431 ± 2.3e-06
308.15 K, m1 = 0.01001 | 0.0080069 ± 2.2e-06
308.15 K, m1 = 0.01196 | 0.0079009 ± 2.1e-06
313.15 K, m1 = 0.0001113 | 0.009888 ± 1.2e-05
313.15 K, m1 = 0.0003812 | 0.00972 ± 1.1e-05
313.15 K, m1 = 0.0006135 | 0.0096252 ± 7.9e-06
313.15 K, m1 = 0.000783 | 0.0095672 ± 6.1e-06
313.15 K, m1 = 0.001297 | 0.0094265 ± 5e-06
313.15 K, m1 = 0.002162 | 0.0092463 ± 4.2e-06
313.15 K, m1 = 0.003051 | 0.0091053 ± 3.5e-06
313.15 K, m1 = 0.004099 | 0.0089684 ± 2.9e-06
313.15 K, m1 = 0.005996 | 0.0087733 ± 2.7e-06
313.15 K, m1 = 0.008013 | 0.0086011 ± 2.4e-06
313.15 K, m1 = 0.01004 | 0.0084556 ± 2.2e-06
313.15 K, m1 = 0.01199 | 0.0083454 ± 2.1e-06
318.15 K, m1 = 0.0001596 | 0.0104 ± 1.2e-05
318.15 K, m1 = 0.0004215 | 0.01024 ± 1.1e-05
318.15 K, m1 = 0.0005697 | 0.010177 ± 7.9e-06
318.15 K, m1 = 0.0008753 | 0.010067 ± 6.6e-06
318.15 K, m1 = 0.001339 | 0.009935 ± 5.4e-06
318.15 K, m1 = 0.002012 | 0.0097823 ± 4.4e-06
318.15 K, m1 = 0.003095 | 0.009596 ± 3.7e-06
318.15 K, m1 = 0.004095 | 0.0094578 ± 3.1e-06
318.15 K, m1 = 0.005994 | 0.0092497 ± 2.8e-06
318.15 K, m1 = 0.008014 | 0.0090658 ± 2.5e-06
318.15 K, m1 = 0.009953 | 0.0089174 ± 2.3e-06
318.15 K, m1 = 0.01195 | 0.0087989 ± 2.2e-06
